Earlier results as cited in patent publication US20110052581A1 (Poniard Pharmaceuticals Inc., priority 2008, published 2011).

Test system: patients with advanced colorectal cancer
Conditions: single agent therapy

SMILES | progression-free survival (median) | response rate | median survival
O=C1[O][Pt]2([NH][C@@H]3CCCC[C@H]3[NH]2)[O]C1=O [oxaliplatin] | 4.0 months | 12% | –
CCc1c2c(nc3ccc(OC(=O)N4CCC(N5CCCCC5)CC4)cc13)-c1cc3c(c(=O)n1C2)COC(=O)[C@]3(O)CC [irinotecan] | 4.3 months | 18% | ~12 months
